Results from patent publication US5096929A, “2-amino-1,2,3,4-tetrahydronaphthalene derivatives with cardiovascular activity, process for their preparation and pharmaceutical compositions containing them” (Chiesi Farmaceutici S.p.A., priority 1989, dated 1992).
Where a name gives a salt, the structure may show the parent alone. Read-outs that look alike come from different tables or passages of the source.

Tests used:
[1] = test system: histaminergic H1 receptors; test: Mechanism of cardiostimulant action: histaminergic H1 receptors; conditions: mechanism study
From the text: (§1) The mechanism of the inotropic activity of CHF 1255 has been studied in a series of other tests.
(§2) Studies have excluded the possibility that the cardiostimulant action of the compound is due to catecholamines release, to the stimulation of alpha-adrenergic cardiac receptors, or to the stimulation of histaminergic H1 and H2 receptors.

rabbit isolated aorta = test: Rabbit isolated aorta, inhibition of norepinephrine dose-response curve
[2] = test system: alpha-adrenergic cardiac receptors; test: Mechanism of cardiostimulant action: alpha-adrenergic cardiac receptors; conditions: mechanism study
From the text: as §1, §2

[3] = test system: histaminergic H2 receptors; test: Mechanism of cardiostimulant action: histaminergic H2 receptors; conditions: mechanism study
From the text: as §1, §2

phosphodiesterase = test: Mechanism of cardiostimulant action: phosphodiesterase inhibition; conditions: mechanism study
From the text: as §1, §2

anesthetized dog = test: Anesthetized dog: cardiovascular activity; type: in vivo, Beagle dog; conditions: for Hypotensive action / Increase of the cardiac output / Increase of the stroke volume / Reduction of the systemic arterial resistances: i.v. bolus
Procedure: The interesting hemodynamic properties of CHF 1255 were confirmed in vivo in the anesthetized dog.
Anesthesized dog: cardiovascular activity
Beagle dogs were anesthetized with sodium pentobarbital (30 mg/kg iv) thoracotomized and monitored by recording cardiocirculatory parameters.
CHF 1255 and the reference drugs (amrinone and xamoterol) were administered i.v. in a bolus.
CHF 1255 at the doses of 0.3-1.3 μmoles/kg i.v. confirmed its activity in changing hemodynamic parameters.

[4] = molecular target: T1, beta-2 adrenergic receptors (Cavia porcellus, UniProt Q8K4Z4); test: Isolated guinea-pig trachea: interactions with beta-2 adrenergic receptors (relaxation of carbachol contraction); conditions: for EC50: carbachol 3×10^-7 M
T1 construct: Trachea strips were isolated and prepared according to the method described by Emerson J and Machay D; from tissue; host or cells: guinea-pig isolated trachea strips
T1 sequence (Q8K4Z4 whole entry): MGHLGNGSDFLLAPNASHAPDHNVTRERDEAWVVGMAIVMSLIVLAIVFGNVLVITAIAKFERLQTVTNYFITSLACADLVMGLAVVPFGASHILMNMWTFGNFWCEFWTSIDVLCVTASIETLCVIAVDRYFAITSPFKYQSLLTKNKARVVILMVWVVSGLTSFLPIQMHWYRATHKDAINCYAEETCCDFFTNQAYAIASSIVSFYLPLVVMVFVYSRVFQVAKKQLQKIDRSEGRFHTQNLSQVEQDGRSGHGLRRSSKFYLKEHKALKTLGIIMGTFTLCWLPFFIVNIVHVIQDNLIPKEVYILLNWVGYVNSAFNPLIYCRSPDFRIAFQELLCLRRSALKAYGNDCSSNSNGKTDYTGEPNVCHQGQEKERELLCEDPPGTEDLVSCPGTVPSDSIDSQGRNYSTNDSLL
Procedure: The selectivity of this interaction has been studied by evaluating the effects on beta-2 adrenergic receptors, in the guinea-pig isolated trachea, using CHF 1026 as reference compound.
Isolated guinea-pig trachea: interactions with beta-2 adrenergic receptors
Trachea strips were isolated and prepared according to the method described by Emerson J and Machay D in J Pharm Pharmacol 1979, 31, 798, immersed in Krebs-Henseleit solution (37° C., 95% O2 +5% CO2), subjected to an initial tension of 1 g and contracted with carbachol (3×10^-7 M).
Dose-response curves of CHF 1255 and CHF 1026 were recorded in the absence and in the presence of 10^-6 M propranolol, used as antagonist and added to the bath before the stimulation with carbachol.
The obtained results are shown in Table 2, expressed as potency (EC50 calculated from t he dose--response curve) and intrinsic activity (α, isoproternol=1).

[5] = Evaluation of acute toxicities, rat; conditions: in vivo, male/female, read-out: Acute toxicity mean LD50
From the text: Evaluation of acute toxicities

[6] = test system: beta-2 adrenergic receptors; test: Isolated guinea-pig trachea: interactions with beta-2 adrenergic receptors (relaxation of carbachol contraction); conditions: inferred from selective beta-1 agonism
[7] = test system: isolated rat right atrium; test: Isolated rat right atrium: chronotropic activity (frequency); conditions: for EC50 / Emax: Rattus norvegicus; for EC50: read-out: EC50, right atrium (frequency)
Procedure: (§3) The inotropic and chronotropic effects of compound (Ia) of the invention were determined in vitro using, respectively, isolated rat left atrium and right atrium.
Right atrium:chronotrpic activity
The preparation was prepared in the same way and under the same conditions as described above, but was not subjected to electric stimulation. Frequency was monitored by a cardiotachograph.
(§4) The results were expressed as the percentage of the response obtained with a maximal dose ([…]) of isoproterenol which was determined at the beginning of the test. In Table 1 the potency (EC50=effective concentration inducing the 50% of the maximal effect) and the relative intrinsic activity (expressed as α and compared with that of isoproterenol, taken=1) are shown.
(§5) The effects of the compounds were evaluated in rat isolated atria according to the previously described method.
(§6) Table 3. Potency (EC50) and intrinsic activity (α;isoproterenol=1) on the isolated rat left atrium (Inotropic activity) and right atrium (chronotropic activity).

isolated rat left atrium = test: Isolated rat left atrium: inotropic activity (force); conditions: for EC50 / Emax: Rattus norvegicus; for EC50: read-out: EC50, left atrium (force)
Procedure: as §3
Left atrium:inotrocic activity
The atria were subjected to a 0.5 g starting tension and suspended in a bath containing aerated Krebs-Henseleit j solution with 95% O2 and […] kept at 32.C. The preparation was stimulated at a 4 Hz frequency with pulses during 5 msec each. The contraction strength was detected by an isometric transducer and recorded on a microndynamometer.
as §4, §5, §6

[8] = test system: arterial rat hind quarter; test: Rat perfused hind quarter; vasodilating action; conditions: for Emax: Rattus norvegicus, 100% = complete reduction
Procedure: Rat perfused hind quarter; vasodilating action
The vasodilating effect of CHF 1255 has been evaluated in the arterial rat hind quarter perfused with Krebs-Henseleit solution at constant flow.
The increase of arterial resistance was induced by K^+ -enriched solution (40 mM), norepinephrine (5×10^-6 M) and serotonin (5×10^-7 M).
Papaverine and prazosin, powerful α-blocker vasodilator, were used as reference compounds.
ED40 =dose (moles) decreasing of 40% the contraction induced by the agonist. 100% was considered as the complete recduction of contraction.

[9] = test system: beta-1 adrenergic receptors; test: Isolated rat left atrium: interactions with beta-adrenergic receptors (atenolol antagonism)
Procedure: Isolated rat left atrium: interactions with beta-adrenercic receptors.
The affinity for beta-1 adrenergic receptors has been evaluated in the rat left atrium as previously described.
In this test, dose-response curves of CHF 1255 were recorded in the absence and in the presence of increasing concentrations (10^-8 to 3×10^-7 M) of the selective beta-1 blocker atenolol.

catecholamines release = test: Mechanism of cardiostimulant action: catecholamines release; conditions: mechanism study
From the text: as §1, §2

[10] = 1st of three doses (0.3-1.3 μmoles/kg)
[11] = 2nd of three doses (0.3-1.3 μmoles/kg)
[12] = 3rd of three doses (0.3-1.3 μmoles/kg)

COc1ccc2c(c1OC)CCC(N[C@@H](C)[C@H](O)c1ccc(O)cc1)C2 (relative stereo) [CHF 1255, Erythro-5,6-Dimethoxy-2-[2-(4-hydroxyphenyl)-2-hydroxy-1-mehylethylamino]1,2,3,4-tetrahydronaphthalene hydrochloride]
Contribution of histaminergic H1 receptor stimulation to cardiostimulant action [1]: excluded
α-blocking activity in rabbit isolated aorta (rabbit isolated aorta): competitive inhibition of the noprepinephrine dose--response curve
Contribution of alpha-adrenergic cardiac receptor stimulation to cardiostimulant action [2]: excluded
Contribution of histaminergic H2 receptor stimulation to cardiostimulant action [3]: excluded
Contribution of phosphodiesterase inhibition to cardiostimulant activity (phosphodiesterase): not due to phosphodiesterase inhibition
Hemodynamic effects (in words) (anesthetized dog; anesthetized dog, i.v.): more relevant than those of amrinone
Duration of activity (anesthetized dog; dog, in vivo): long-lasting
Hypotensive action (anesthetized dog; [10]): -17%
Increase of the cardiac output (anesthetized dog; [10]): 17%
Increase of the stroke volume (anesthetized dog; [10]): 10
Reduction of the systemic arterial resistances (anesthetized dog; [10]): -28%
Hypotensive action (anesthetized dog; [11]): -22%
Increase of the cardiac output (anesthetized dog; [11]): 28%
Increase of the stroke volume (anesthetized dog; [11]): 16
Reduction of the systemic arterial resistances (anesthetized dog; [11]): -37%
Hypotensive action (anesthetized dog; [12]): -31%
Increase of the cardiac output (anesthetized dog; [12]): 34%
Increase of the stroke volume (anesthetized dog; [12]): 21
Reduction of the systemic arterial resistances (anesthetized dog; [12]): -45%
Inotropic effect, dF/dT index (in words) (anesthetized dog; peak of first derivative of aortic flow): remarkable inotropic effect increasing the dF/dT index
Effect of propranolol on dose-response curve ([4]; 10^-6 M propranolol): remain unchanged
Emax ([4]; guinea pig, isoproterenol=1, without propranolol, read-out: α in absence of propranolol): 94%
Stimulation of beta-2 adrenergic receptors (in words) ([4]; guinea-pig trachea): does not stimulate beta-2 adrenergic receptors
EC50 ([4]; guinea-pig trachea, with 10^-6 M propranolol, read-out: EC50 in presence of propranolol): 4.6 µM
EC50 ([4]; guinea-pig trachea, without propranolol, read-out: EC50 in absence of propranolol): 3.4 µM
α in presence of propranolol ([4]; isoproterenol=1, with 10^-6 M propranolol): 0.72
LD50 ([5]; iv, i.v.): 59 mg/kg
LD50 ([5]; po, os): 1270 mg/kg
Tachycardic and arrhythmogenic activity due to stimulation of beta-2 receptors [6]: no tachycardic and arrhythmogenic activity
EC50 ([7]; Table 3, chronotropic activity, rat right atrium): 1.32 µM
EC50 ([7]; Table I, isolated rat right atrium, confidence limits in parentheses): 1.3 µM
Emax ([7]; Table 3, isoproterenol=1, read-out: α, right atrium (frequency)): 160%
Emax ([7]; Table I, isoproterenol taken=1, confidence limits in parentheses, read-out: α (intrinsic activity), right atrium (frequency)): 55%
Chronotropic efficacy compared with xamoterol ([7]; Table 3 comparison): remarkably lower than that of xamoterol
EC50 (isolated rat left atrium; Table 3, inotropic activity, rat left atrium): 3.01 µM
EC50 (isolated rat left atrium; Table I, isolated rat left atrium, 4 Hz stimulation, confidence limits in parentheses): 3 µM
Emax (isolated rat left atrium; Table 3, isoproterenol=1, read-out: α, left atrium (force)): 60%
Emax (isolated rat left atrium; Table I, isoproterenol taken=1, confidence limits in parentheses, read-out: α (intrinsic activity), left atrium (force)): 60%
Cardiostimulating potency compared with dopamine and CHF 1026 (isolated rat left atrium; Table 1 comparison): potency comparable to those of dopamine and of CHF 1026
Intrinsic activity / type of agonism (in words) (isolated rat left atrium; beta-1 adrenergic receptors): partial agonist of beta-1 adrenergic receptors
Potency ratio vs amrinone (times higher) (isolated rat left atrium; increase of contraction force, 50% of maximum effect, higher than amrinone): about 10 times
Potency ratio vs xamoterol (times lower) (isolated rat left atrium; increase of contraction force, 50% of maximum effect, lower than xamoterol): about 300 times
Activity against contraction by the different agents (in words) ([8]; K+, norepinephrine, serotonin): particularly active on the norepinephrine induced contraction
Emax ([8]; K+ 40 mM, read-out: α (efficacy), K+ induced contraction): 46%
Emax ([8]; norepinephrine 5×10^-6 M, read-out: α (efficacy), norepinephrine induced contraction): 94%
Emax ([8]; serotonin 5×10^-7 M, read-out: α (efficacy), 5-HT induced contraction): 60%
ED40, K+ induced contraction ([8]; dose decreasing contraction by 40%, K+ 40 mM): 1.5e-06 mol
ED40, norepinephrine induced contraction ([8]; dose decreasing contraction by 40%, norepinephrine 5×10^-6 M): 1.2e-08 mol
ED40, 5-HT induced contraction ([8]; dose decreasing contraction by 40%, serotonin 5×10^-7 M): 6.5e-07 mol
Shift of dose-response curve by beta-1 blocker atenolol ([9]; atenolol 10^-8 to 3×10^-7 M): shifted the dose-responsive curve of CHF 1255 to the right in a dose-dependent way
Receptor mediating the inotropic activity ([9]; mechanism study): due to the stimulation of beta-1 adrenergic receptors
Contribution of catecholamines release to cardiostimulant action (catecholamines release): excluded
